Here are results for 23 molecules from patent US10611778B2, “Fused bicyclic inhibitors of menin-MLL interaction” (Janssen Pharmaceutica NV, priority 2016, dated 2020).

Test [1] deals with T1, Menin/MLL (terbium chelate-labeled menin, FITC-MBM1 peptide) (Homo sapiens, UniProt O00255, T541A).
T1 construct: Menin (a.a. 1-610-6×his tag) was labeled with terbium cryptate as follows
T1 sequence (O00255 with tags, fused parts or gaps T541A): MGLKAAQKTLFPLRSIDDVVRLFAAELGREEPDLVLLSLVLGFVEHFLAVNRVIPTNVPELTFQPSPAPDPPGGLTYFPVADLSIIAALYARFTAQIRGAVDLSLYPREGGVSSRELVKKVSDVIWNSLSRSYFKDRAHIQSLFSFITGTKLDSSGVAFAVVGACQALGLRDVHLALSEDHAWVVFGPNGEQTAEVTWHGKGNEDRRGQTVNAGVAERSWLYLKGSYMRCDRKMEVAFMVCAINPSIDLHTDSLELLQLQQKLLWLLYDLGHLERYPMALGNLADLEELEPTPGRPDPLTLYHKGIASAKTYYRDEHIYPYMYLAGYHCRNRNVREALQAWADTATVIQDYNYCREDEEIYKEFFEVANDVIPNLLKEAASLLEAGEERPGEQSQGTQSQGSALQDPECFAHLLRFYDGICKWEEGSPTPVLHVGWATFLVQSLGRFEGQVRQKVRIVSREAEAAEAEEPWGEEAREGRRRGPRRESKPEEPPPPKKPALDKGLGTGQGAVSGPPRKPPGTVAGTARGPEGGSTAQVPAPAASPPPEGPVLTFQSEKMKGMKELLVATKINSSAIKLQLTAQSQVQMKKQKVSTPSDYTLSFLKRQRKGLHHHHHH
Nature of the test: Menin/MLL homogenous time-resolved fluorescence (HTRF) assay. In kind it is binding. Conditions: averaged values over all measurements; read-out: Menin HTRF assay (IC50). As for the experimental part:
3) Menin/MLL Homogenous Time-Resolved Fluorescence (HTRF) Assay
To an untreated, white 384-well microtiter plate was added 40 nL 200× test compound in DMSO and 4 μL 2× terbium chelate-labeled menin (vide infra for preparation) in assay buffer (40 mM Tris-HCl, pH 7.5, 50 mM NaCl, 1 mM DTT and 0.05% Pluronic F-127). After incubation of test compound and terbium chelate-labeled menin for 5 min at ambient temperature, 4 μL 2×FITC-MBM1 peptide (FITC-β-alanine-SARWRFPARPGT-NH2) in assay buffer was added, the microtiter plate centrifuged at 1000 rpm for 1 min and the assay mixtures incubated for 15 min at ambient temperature. The relative amount of menin⋅FITC-MBM1 complex present in an assay mixture is determined by measuring the homogenous time-resolved fluorescence (HTRF) of the terbium/FITC donor/acceptor fluorophore pair using a BMG Pherastar plate reader (ex. 337 nm/terbium em. 490 nm/FITC em. 520 nm) at ambient temperature. The degree of fluorescence resonance energy transfer (the HTRF value) is expressed as the ratio of the fluorescence emission intensities of the FITC and terbium fluorophores (F^em 520 nm/F^em 490 nm). The final concentrations of reagents in the binding assay are 100 pM terbium chelate-labeled menin, 75 nM FITC-MBM1 peptide and 0.5% DMSO in assay buffer. Dose-response titrations of test compounds are conducted using an 11 point, three-fold serial dilution scheme, starting at 31 μM.
Compound potencies were determined by first calculating % inhibition at each compound concentration according to equation 1: % inhibition=((HC−LC)−(HTRF^compound−LC))/(HC−LC))*100 (Eqn 1)
Where LC and HC are the HTRF values of the assay in the presence or absence of a saturating concentration of a compound that competes with FITC-MBM1 for binding to menin, and HTRF^compound is the measured HTRF value in the presence of the test compound. HC and LC HTRF values represent an average of at least 16 replicates per plate.
Where Bottom and Top are the lower and upper asymptotes of the dose-response curve, respectively, IC50 is the concentration of compound that yields 50% inhibition of signal and h is the Hill coefficient.
Preparation of Terbium cryptate labeling of Menin: Menin (a.a. 1-610-6×his tag) was labeled with terbium cryptate as follows. 2 mg of Menin was buffer exchanged into 1× phosphate buffered saline. 16 uM Menin was incubated with 4-fold molar excess NHS-terbium cryptate (Cisbio Bioassays, Bedford, Mass.) for 2 hours at room temperature. The labeled protein was purified away from free label by running the reaction over a Superdex 200 Increase 10/300 GL column at 0.75 ml/min. Peak fractions were collected, aliquoted and frozen at −80° C.

The next test deals with MV-4-11. Nature of the test: Proliferation assay (spheroid assay) MV-4-11. Particulars: Homo sapiens, MV4-11, MV-4-11; averaged values over all measurements; read-out: Spheroid assay MV-4-11 (IC50). In kind it is cell-based, human. The protocol: The anti-proliferative effect of menin/MLL protein/protein interaction inhibitor test compounds was assessed in human leukemia cell lines. The cell lines MV-4-11 and MOLM14 harbor MLL translocations and express the MLL fusion proteins MLL-AF4 and MLL-AF9, respectively, as well as the wildtype protein from the second allele. […] K562 and KG1 were used as a control cell lines containing two MLL wildtype alleles in order to exclude compounds that display general cytotoxic effects.
MV-4-11 and MOLM14 were cultured in RPMI-1640 (Sigma Aldrich) supplemented with 10% fetal bovine serum (HyClone), 2 mM L-glutamine (Sigma Aldrich) and 50 μg/ml gentamycin (Gibco). K562 were propagated in RPMI-1640 (Sigma Aldrich) supplemented with 20% fetal bovine serum (HyClone), 2 mM L-glutamine (Sigma Aldrich) and 50 μg/ml gentamycin (Gibco). KG1 were cultured in Iscove's MDM (Gibco) supplemented with 20% fetal bovine serum (HyClone), 2 mM L-glutamine (Sigma Aldrich) and 50 μg/ml gentamycin (Gibco).
In order to assess the anti-proliferative effects, 1,500 MV-4-11, 300 MOLM14, 750 K562 or 1,300 KG1 cells were seeded in 200 μl media per well in 96-well round bottom, ultra-low attachment plates (Costar, catalogue number 7007). Cell seeding numbers were chosen based on growth curves to ensure linear growth throughout the experiment. Test compounds were added at different concentrations and the DMSO content was normalized to 0.3%. Cells were incubated for 8 d at 37° C. and 5% CO2. Spheroid like growth was monitored in real-time by live-cell imaging (IncuCyteZOOM, Essenbio, 4× objective) acquiring one image every four hours for 8 d. Confluence (%) as a measure of spheroid size was determined using an integrated analysis tool.
In order to determine the cumulative effect of the test compounds over time, the area under the curve (AUC) in a plot of confluence against time was calculated. Confluence at the beginning of the experiment (t=0) was used as baseline for the AUC calculation.
Absolute IC50 values were calculated according to the following procedure: % Control=(AUC sample/AUC control)*100
AUC control=mean AUC of control values (cells without compound/DMSO as vehicle control)
A non-linear curve fit was applied using the least squares (ordinary) fit method to the plot of % control versus compound concentration. Based on this, the absolute IC50 value (half maximal inhibitory concentration of the test compound causing an anti-proliferative effect of 50% relative to the vehicle control) was calculated.

In general, IC50 refers to the point on the concentration scale where inhibition reaches its midpoint. Take `FC(F)(F)Cc1cc2c(N3C[C@H]4CCN(Cc5cccnc5)C[C@H]4C3)ncnc2s1` (single isomer, unassigned) [Compound 56]: the values for the IC50 (in test [1]; with MV-4-11) were 41 nM and 1400 nM, respectively.
Turning to `O=C(c1ccncc1)N1CCC(CN2CC[C@@H]3CN(c4ncnc5sc(CC(F)(F)F)cc45)C[C@@H]3C2)CC1` (single isomer, unassigned) [Compound 108], the IC50 was 23 nM in test [1] and 870 nM in the test with MV-4-11.
For `Fc1cncc(CN2CC[C@@H]3CN(c4ncnc5sc(CC(F)(F)F)cc45)C[C@@H]3C2)c1` (single isomer, unassigned) [Compound 38], the concentration for half-maximal inhibition (IC50) in test [1] worked out at 208 nM; in the test with MV-4-11, 2300 nM.
With `OC1(CN2CC[C@@H]3CN(c4ncnc5sc(CC(F)(F)F)cc45)C[C@@H]3C2)CCOCC1` (single isomer, unassigned) [Compound 86], the IC50 in test [1] amounted to 198 nM; in the test on MV-4-11 it was 6600 nM.
On to `O=C(c1ccccc1)N1CCC(CN2CC[C@@H]3CN(c4ncnc5sc(CC(F)(F)F)cc45)C[C@@H]3C2)CC1` (single isomer, unassigned) [Compound 94], for which the IC50 in test [1] was found to be 18 nM; with MV-4-11, 430 nM.
As to `FC(F)(F)Cc1cc2c(N3C[C@H]4CCN(Cc5ccnnc5)C[C@H]4C3)ncnc2s1` (single isomer, unassigned) [Compound 55], the IC50 in test [1] was determined as 75 nM; in the test with MV-4-11 it was 3300 nM.
`FC(F)(F)Cc1cc2c(N3C[C@H]4CCN(Cc5cnoc5)C[C@H]4C3)ncnc2s1` (single isomer, unassigned) [Compound 51]: the IC50 was 62 nM in test [1] and 2300 nM in the test with MV-4-11.
As for `OCCn1cc(CN2CC[C@@H]3CN(c4ncnc5sc(CC(F)(F)F)cc45)C[C@@H]3C2)cn1` (single isomer, unassigned) [Compound 75], the IC50 was found to be 28 nM in test [1] and 1000 nM in the test with MV-4-11.
For `O=C(C1COC1)N1CCC(CN2CC[C@@H]3CN(c4ncnc5sc(CC(F)(F)F)cc45)C[C@@H]3C2)CC1` (single isomer, unassigned) [Compound 95] the same measures were 69 nM and 2100 nM.
For `FC(F)(F)Cc1cc2c(N3CC[C@@H]4[C@@H](CCN4Cc4ccc[nH]4)C3)ncnc2s1` (single isomer, unassigned) [Compound 85], the IC50 amounted to 103 nM in test [1] and 3100 nM in the test with MV-4-11.
Take `CCOc1ccc(CN2CC[C@@H]3CN(c4ncnc5sc(CC(F)(F)F)cc45)C[C@@H]3C2)cn1` (single isomer, unassigned) [Compound 103]: the values for the IC50 (in test [1]; in the test on MV-4-11) were 106 nM and 1100 nM, respectively.
Regarding `O=C(C1CCOCC1)N1CCC(CN2CC[C@@H]3CN(c4ncnc5sc(CC(F)(F)F)cc45)C[C@@H]3C2)CC1` (single isomer, unassigned) [Compound 91], the IC50 worked out at 30 nM in test [1] and 1200 nM in the test with MV-4-11.
Regarding `CNc1ccc(CN2CC[C@@H]3CN(c4ncnc5sc(CC(F)(F)F)cc45)C[C@@H]3C2)cn1` (single isomer, unassigned) [Compound 106], the half-inhibitory concentration (IC50) in test [1] came out at 10 nM; in the test with MV-4-11 it was 190 nM.
Regarding `COc1ccncc1CN1CC[C@@H]2CN(c3ncnc4sc(CC(F)(F)F)cc34)C[C@@H]2C1` (single isomer, unassigned) [Compound 61], the half-maximal inhibitory concentration (IC50) in test [1] turned out to be 146 nM; with MV-4-11 it was 1700 nM.
On to `CNc1cc(CN2CC[C@@H]3CN(c4ncnc5sc(CC(F)(F)F)cc45)C[C@@H]3C2)ccn1` (single isomer, unassigned) [Compound 107], for which the figures for the IC50 (in test [1]; in the test with MV-4-11) were 23 nM and 340 nM, respectively.
Take `FC(F)(F)Cc1cc2c(N3C[C@H]4CCN(Cc5ccnc(Cl)c5)C[C@H]4C3)ncnc2s1` (single isomer, unassigned) [Compound 65]: the IC50 in test [1] turned out to be 56 nM; with MV-4-11, 1200 nM.
For `FC(F)(F)Cc1cc2c(N3C[C@H]4CCN(Cc5ccc(Cl)nc5Cl)C[C@H]4C3)ncnc2s1` (single isomer, unassigned) [Compound 62] the same measures were 36 nM and 2200 nM.
Take `COc1cncc(CN2CC[C@@H]3CN(c4ncnc5sc(CC(F)(F)F)cc45)C[C@@H]3C2)c1` (single isomer, unassigned) [Compound 46]: the results for the half-inhibitory concentration (IC50) (in test [1]; with MV-4-11) were 105 nM and 1500 nM, respectively.
Turning to `CC(CN1CC[C@@H]2CN(c3ncnc4sc(CC(F)(F)F)cc34)C[C@@H]2C1)c1ccccc1` (single isomer, unassigned) [Compound 49], the IC50 came out at 44 nM in test [1] and 1900 nM in the test with MV-4-11.
In the case of `COCCn1cc(CN2CC[C@@H]3CN(c4ncnc5sc(CC(F)(F)F)cc45)C[C@@H]3C2)cn1` (single isomer, unassigned) [Compound 97], the values for the IC50 (in test [1]; in the test with MV-4-11) were 150 nM and 2000 nM, respectively.
As for `O=C(c1cccnc1)N1CCC(CN2CC[C@@H]3CN(c4ncnc5sc(CC(F)(F)F)cc45)C[C@@H]3C2)CC1` (single isomer, unassigned) [Compound 96], the values for the IC50 (in test [1]; in the test with MV-4-11) were 45 nM and 1000 nM, respectively.
As for `CC(CN1CC[C@@H]2CN(c3ncnc4sc(CC(F)(F)F)cc34)C[C@@H]2C1)C(F)(F)F` (single isomer, unassigned) [Compound 47], the IC50 in test [1] came to 55 nM; in the test on MV-4-11, 2300 nM.
As for `Cn1cncc1CN1CC[C@@H]2CN(c3ncnc4sc(CC(F)(F)F)cc34)C[C@@H]2C1` (single isomer, unassigned) [Compound 54], the figures for the IC50 (in test [1]; in the test with MV-4-11) were 97 nM and 2100 nM, respectively.
